Like-named read-outs stand apart in the source and are kept apart here.
Molecular target: T1, recombinant ATX (mouse ATX-β) (Mus musculus, UniProt Q9R1E6)
T1 construct: purchased Sino Biological
Experiment: Inhibition of ATX, Amplex Red PLD assay kit
Format: biochemical
Details: 2 nM recombinant ATX, mean of two independent experiments
Experimental: The in vitro activity of the synthetic inhibitors was studied using the Amplex™ Red PLD assay kit (Molecular Probes, Interchim, Montlucon, France). Inhibitors were dissolved in DMSO (stock solution 3 mM) and appropriate dilutions were made in DMSO. […] The IC50 values were determined using the mean values obtained from two independent experiments. The IC50 values were determined graphically using the sigmoid dose-response fitting method (PrismH software) by the equation f=y0+a/(1+exp(−(x−x0)/b)) given by SigmaPlot 11.0.

[1] = hydroxamates, substrate 50 μM LPC 16:0, read-out: IC50 (μM) 16:0 LPC
[2] = hydroxamates, substrate 50 μM LPC 18:0, read-out: IC50 (μM) 18:0 LPC
[3] = thioamides/phosphonates/phosphinates, substrate 50 μM LPC 16:0, read-out: IC50 (μM) 16:0 LPC
[4] = thioamides/phosphonates/phosphinates, substrate 50 μM LPC 18:0, read-out: IC50 (μM) 18:0 LPC
[5] = thioamides/phosphonates/phosphinates, substrate 50 μM LPC 18:1, read-out: IC50 (μM) 18:1 LPC

SMILES: O=C(Cc1ccc(NC(=O)CCCCC(=O)Nc2ccccc2)cc1)NO [GK285]
- IC50 [1]: 1.2 µM

SMILES: O=C(Cc1ccc(NC(=O)CCCCCCC(=O)Nc2ccccc2)cc1)NO [GK346]
- IC50 [1]: 2 µM

SMILES: CCCCCCCCc1ccc(OCC(=O)Nc2ccc(CC(=O)NO)cc2)cc1 [GK344]
- IC50 [1]: 1 µM
- IC50 [2]: 0.3 µM

SMILES: CCCCCCCCCCCCCC(=S)NCCCC[PH](=O)O [GK312]
- IC50 [3]: 3 µM
- IC50 [4]: 0.7 µM

SMILES: CCCCCCCCCCCCCC(=O)Nc1ccc(CC[PH](=O)O)cc1 [GK327]
- IC50 [3]: 0.4 µM
- IC50 [4]: 4 µM

SMILES: CCCCCCCCc1ccc(CCC(=O)Nc2ccc(CC(=O)NO)cc2)cc1 [GK345]
- IC50 [1]: 5 µM

SMILES: CCCCOc1ccc(CCCCC(=O)Nc2ccc(CC(=O)NO)cc2)cc1 [GK341]
- IC50 [1]: 4 µM

SMILES: O=C(Cc1ccc(NC(=O)CCCCCCc2ccccc2)cc1)NO [GK333]
- IC50 [1]: 0.7 µM
- IC50 [2]: 2 µM

SMILES: COC(=O)[C@@H](CCC(=O)NO)NC(=O)CCCCC(=O)Nc1ccc(OC)cc1 [GK382]
- IC50 [1]: 4 µM

SMILES: CCCCCCCCCCCCCC(=O)Nc1ccc(CC(=O)NO)cc1 [GK332]
- IC50 [1]: 1 µM
- IC50 [2]: 0.2 µM

SMILES: Nc1ccccc1NC(=O)Cc1ccc(NC(=O)CCCCC(=O)Nc2ccccc2)cc1 [GK335]
- IC50 [1]: 0.6 µM

SMILES: CCCCCCCCCCCCCC(=S)NCCCC[PH](=O)O [GK325]
- IC50 [3]: 0.5 µM
- IC50 [4]: 1 µM

SMILES: CCCCCCCCCCCCCC(=S)NCCCCC(=S)NCC [GK377]
- IC50 [3]: 0.198 µM
- IC50 [5]: 0.098 µM

SMILES: CCCCCCCCCCCCCC(=S)NCCCCP(=O)(O)OCC [GK378]
- IC50 [3]: 0.12 µM
- IC50 [5]: 0.05 µM

SMILES: COc1ccc(C(=O)NCCCCC(=O)Nc2ccc(CC(=O)NO)cc2)cc1 [GK381]
- IC50 [1]: 1 µM

SMILES: O=C(Cc1ccc(NC(=O)CCCCNC(=O)c2ccccc2)cc1)NO [GK340]
- IC50 [1]: 1 µM
- IC50 [2]: 0.2 µM

SMILES: CCCC[C@@H](CCCC(=O)NO)NC(=S)NCCCC(=O)Nc1ccccc1 [GK471]
- IC50 [1]: 0.8 µM

SMILES: CCCC[C@@H](CCCC(=O)NO)NC(=O)CCCCC(=O)Nc1ccccc1 [GK442]
- IC50 [1]: 0.06 µM

SMILES: COC(=O)[C@@H](CCCC(=O)NO)NC(=O)CCCCC(=O)Nc1ccccc1 [GK400]
- IC50 [1]: 0.05 µM

SMILES: CCCCCCCCCCCCNC(=S)NCCCCC(=S)NCC [GK446]
- IC50 [3]: 0.06 µM

SMILES: COC(=O)[C@@H](CCC(=O)NO)NC(=O)CCCCC(=O)Nc1ccccc1 [GK337]
- IC50 [1]: 0.4 µM
- IC50 [2]: 5 µM

Source: patent publication US20180141965A1, “AUTOTAXIN INHIBITORS AND USES THEREOF” (NATIONAL AND KAPODISTRIAN UNIVERSITY OF ATHENS, priority 2015, published 2018)
